{"source": "patent US8883856B2", "about": "“Compositions and methods for the treatment of inflammatory diseases using topoisomerase inhibitors” (priority 2000, dated 2014)", "key": {"human neutrophils": {"tested_on": "human neutrophils", "experiment": "Neutrophil chemiluminescence (neutrophil activation)", "format": "cell-based", "conditions": "Homo sapiens, Neutrophil; activation by MSUM crystals; read-out: IC 50, inhibition of neutrophil chemiluminescence", "method": "Freshly prepared human neutrophils were incubated with the compound followed by stimulation of the cells with either plasma opsonized CPPD crystals, the bacterial chemoattractant, fMLP or the phorbol ester, PMA. Stimulation (or activation) of the cells induced superoxide anion generation which could be measured by the emission of light (chemiluminescence). Inhibition of neutrophil function was then determined by inhibition of chemiluminescence. Hanks buffered salt solution (HBSS) pH 7.4 was used throughout the study. All chemicals were purchased from Sigma Chemical Co. (St. Louis, Mo.) unless otherwise stated. All procedures were performed at 37° C. unless otherwise stated. CPPD (triclinic) crystals were prepared and characterized as previously reported (Jackson J K et al., J Rheumatol, 24: 341-348, 1996). The size distribution of the crystals was approximately 33% less than […]. Opsonization of crystals was carried out using 50% heparinized plasma and concentrations of 50 mg of CPPD in 1 mL of 50% plasma. Crystals were incubated with diluted plasma for 30 min at 37° C., centrifuged at 1000×g, then washed in HBSS and recentrifuged. Neutrophils were prepared from freshly collected, human, citrated whole blood. Briefly, 400 mL of blood were mixed with 80 mL of 4% dextran T500 (Pharmacia LKB, Biotechnology AB Uppsala, Sweden) in HBSS and allowed to settle for 1 h. Plasma was collected continuously and 5 mL applied to 5 mL Ficoll Paque (Pharmacia) in 15 mL polypropylene tubes (Corning, N.Y.). Following centrifugation at 500×g for 30 min, the neutrophil pellets were washed free of erythrocytes by 20 s of hypotonic shock. Neutrophils were resuspended in HBSS, kept on ice and used for experiments within 3 h. Neutrophil viability and purity was always greater than 90%.\nA stock solution of drug was diluted in DMSO to give various concentrations of drug. Equal volumes of these solutions were added to neutrophils at 5×10^6 cells per mL under mild vortexing to achieve final concentrations with a final DMSO concentration of 0.25%. This DMSO concentration found to have no effect on control cell responses. Cells were incubated for 15 minutes at 37° C. before addition to crystals, fMLP or PMA.\nChemiluminescence studies were performed at a cell concentration of 5×10^6 cells per mL in HBSS with CPPD (50 mg/mL). In all experiments 0.5 mL of cells were added to 25 mg of CPPD or 1 uM fMLP (and 0.5 uM cytochalasin B) or 0.5 uM PMA in 1.5 ml Eppendorf tubes. To the tubes were added 10 uL of luminol dissolved in 25% DMSO in HBSS to give a final concentration of 1 μM and the samples were mixed to initiate neutrophil activation. Chemiluminescence was monitored using an LKB Luminometer (Model 1250) at 37° C. with shaking immediately prior to measurements to resuspend the crystals. Control tubes contained cells, drug and luminol (crystals absent)."}, "[1]": {"tested_on": "smooth muscle cells (A7r5 rat embryonic thoracic aorta)", "experiment": "MTT proliferation/cytotoxicity assay, smooth muscle cells", "format": "cell-based", "conditions": "A7R5, 48 h, read-out: inhibitory concentration that gave 50% effect on proliferation (IC50), smooth muscle cells", "method": "(§1) Proliferation was determined using the MTT proliferation/cytotoxicity assay.\n(§2) On day one, 1500-2000 smooth muscle cells (A7r5 rat embryonic thoracic aorta) or synoviocytes (HIG.82 rabbit) were plated per well on a 96-well plate, leaving the first column free of cells (blank). The plate was placed back into the 37° C., CO2 incubator. The following day camptothecin was added at various concentrations. No drugs were added to the first column (blank) and the second column (untreated column) for control. The cells were exposed for 24, 48, and 72 hours. At the end of the exposure period, 50 μl of dimethylthiazol diphenyltetrazolium bromide salt (MTT) dissolved in media was added and allowed to incubate for 4 hours at 37° C. The medium was then aspirated and 200 μl of dimethyl sulfoxide was added. The plate was agitated for 30 minutes and the absorbance read at 562 nm. The optical density measurement was converted to number of cells using a standard plot of optical density with known number of cells and cell viability was expressed as % growth (this value is the % of the control cells)."}, "[2]": {"tested_on": "synoviocytes (HIG.82 rabbit)", "experiment": "MTT proliferation/cytotoxicity assay, synoviocytes", "format": "cell-based", "conditions": "Oryctolagus cuniculus, 48 h, read-out: inhibitory concentration that gave 50% effect on proliferation (IC50), synoviocytes", "method": "as §1, §2"}, "surgical adhesions": {"tested_on": "surgical adhesions", "format": "in vivo", "conditions": "drug-loaded crosslinked HA films (camptothecin 2.5%, doxorubicin 2.5%, beta-lapachone 5%, curcumin 10%), rats", "method": "The rat caecal-sidewall adhesion model was used to test efficacy of crosslinked hyaluroinc acid (HA) polymeric films loaded with one of the following compounds; camptothecin 2.5% loading (w/w to polymer), curcumin 10%, doxorubicin 2.5%, beta-lapachone at 5% or unloaded-no-drug control. Films of 2-2.5 cm^2 were prepared with each drug by the method described in example 10. ETO sterilized, and divided in half at the time of surgical implantation. Sham surgeries omitted the application of HA film as separate controls.\nSprague Dawley rats, 15 male and 15 female, weighing 250-400 g were anaesthetized with Halothane (5%) and maintained, by nose cone, on 1.5-2% Halothane. Surgeries were conducted under sterile conditions. The abdomen was shaved, scrubbed with an antiseptic wash, and opened at the linea alba with a 3 cm incision. A region of the abdominal cavity immediately opposite the large bowel was isolated with bowel clamps, and a #11 scalpel blade was used to score a section of the transversus muscle, describing a rectangle 1×1.5 cm. The muscle was stripped from the peritoneal sidewall with forceps, and minor bleeding was arrested by tamponade. The large bowel was then externalized with sterile swabs, and caecal contents evacuated into the large bowel. Both surfaces of the caecum were stroked, 45 times on each side, with a #10 scalpel blade to produce erythema and punctated bleeding. Each stroke spanned the caecal diameter (approximately 1 cm), and extended along 1.5 cm of the caecal extremity. In only one case did this abrasion procedure cause sustained bleeding requiring ligation. Following 90 blade strokes, the integrity of the tissue was confirmed, and caecum and large bowel were replaced in the pelvis.\nThe film was laid over the rectangular sidewall abrasion (except in the case of sham surgeries), covering the area of damaged tissue. The abraded caecum, relocated in its previous orientation, was than overlaid such that the entire sidewall wound and film were covered by it. Four tacking sutures were placed at the outer extremities of the abraded area of the caecum securing it to the intact peritoneal sidewall immediately outside the rectangular wound area. The abdomen was closed in two layers, and antibiotics administered intramuscularly before the animal regained consciousness.\n. Adhesions over, and adjacent to the caecum were rated according to the following findings: 0: No adhesions connecting caecum to sidewall wound; 1: Filmy or stranded were separable by blunt dissection; 2: Cohesive adhesions attaching the caecum to the sidewall were separable by aggressive blunt dissection; 3: Adhesions inseparable without cutting, or without tearing/damaging caecum. Fractions were assigned where a variety of ratings seemed applicable."}, "caspase 3": {"tested_on": "caspase 3", "experiment": "Caspase 3 activation in neutrophils (caspACE assay system)", "format": "cell-based, human", "excerpt": "(§3) The inflammation associated with many forms of arthritis is thought to arise from the presence of large numbers of immune cells, such as neutrophils, in the synovial joints of humans. The extended inflammation associated with crystal induced arthritis arises from the interaction of neutrophils with crystals in the synovial joint. One reason the extended duration of the inflammation in this disease may be due to the inhibition of neutrophil apoptosis by crystals. This inhibition may result in the neutrophils remaining in the joint for extended periods. Compounds that overcome this crystal induced suppression of neutrophil apoptosis therefore allow the more rapid clearance of these cells from the joint with the appropriate abatement of inflammation. The process of apoptosis involves the endonuclease driven cleavage of DNA into fragments which may be visualized as a ladder of bands in an agarose gel electrophoresis experiment. Other assays that may be used include caspase 3 quantitation or measurements of cytoplasmic DNA concentration. […] Agents that inhibit caspase activation levels or reduce cytoplasmic DNA are pro-survival (potentially inflammatory) and agents that promote are pro-apoptotic and anti-inflammatory. The use of these methods and their role in neutrophil affected inflammation is described in detail in Tudan et al. J Rheumatol. 27 p 2463-72. 2000.\n(§4) Methods: Agarose gel banding/laddering of 180 base pairs: Neutrophils were separated from fresh human blood by standard methods (dextran sedimentation and ficoll paque centrifugation) and suspended in buffer at a concentration of 1×10^6 cells/ml. The cells were then incubated with crystals of calcium pyrophosphate dihydrate (CPPD) for 1 hours at 37° C. The cells were then incubated with or without camptothecin (0.1 uM) for 4 hours at 37° C. Neutrophil aliquots (1×10^6 cells) from different conditions were resuspended in 480 μl of lysis buffer (0.6% SDS, 10 mM Tris, 1 mM EDTA (pH 7.0)) and after vigorous mixing were allowed to sit on ice for 20 min after addition of 120 μl of 5M NaCl. In caspase 3 and DNA fragmentation assays a milder detergent (Triton) was used to lyse only the plasma membrane of the cells so that cytoplasmic contents (caspase 3 or DNA fragments) could be assayed. Samples were sedimented at 14,000 rpm at 4° C. for 20 min. The pellet was dried and resuspended in phenol:chloroform. Four hundred fifty μl of the upper phase was added to a new tube, which was then charged with 950 μl of […] and held at −20° C. for 10 min. The DNA was sedimented at 14,000 rpm (4° C.) and carefully washed in 75% ethanol without disturbing the pellet. The DNA was dried at 37° C. and then resuspended in 20 μl sample buffer (50% TBE with 1 μl of 1 ng/ml RNase A (Pharmacia)). The samples were vortexed and allowed to stand at 37° C. for 10 min. Five μl of loading dye (20% Ficoll Paque (Pharmacia), 0.1% bromophenol blue, 0.1% xylene cyanole) was added. Electrophoresis was carried out in 2% agarose at 80 mA, and the gel was then stained with ethidium bromide (Pharmacia) and photographed under U.V. illumination.\nCaspase 3 activation was assayed using a commercial kit for this enzyme (caspACE assay system, Promega Scientific) and cyotplasmic DNA was assayed using a commercial kit (Cell death detection ELISA-Boehringer—Mannheim)."}, "neutrophils": {"tested_on": "neutrophils", "experiment": "Cytoplasmic DNA fragmentation in neutrophils (Cell death detection ELISA)", "format": "cell-based, human", "excerpt": "as §3\nas §4, with “The samples were vortexed and allowed to stand at 37° C. for 10 min. Five μl of loading dye (20% Ficoll Paque (Pharmacia), 0.1% bromophenol blue, 0.1% xylene cyanole) was added. Electrophoresis was carried out in 2% agarose at 80 mA, and the gel was then stained with ethidium bromide (Pharmacia) and photographed under U.V. illumination.” left out"}}, "note": "Read-outs that look alike come from different tables or passages of the source.", "data": [{"smiles": "O=C1C=CC(=O)c2c(O)cccc21", "note": "[juglone]", "values": [{"measurement": "IC50", "setting": "human neutrophils", "value": "0.5 to 1", "unit": "µg/mL"}, {"measurement": "IC50", "setting": "[1]", "value": 2, "unit": "µM"}, {"measurement": "IC50", "setting": "[2]", "value": 4.3, "unit": "µM"}]}, {"smiles": "COc1cc(/C=C/C(=O)CC(=O)/C=C/c2ccc(O)c(OC)c2)ccc1O", "note": "[curcumin]", "values": [{"measurement": "surgical adhesion formation, in words", "setting": "surgical adhesions", "value": "no inhibition of adhesion formation"}, {"measurement": "surgical adhesion formation, in words", "setting": "surgical adhesions; listed as circumin", "value": "no inhibitory effect on surgical adhesion formation in rats"}]}, {"smiles": "O=C1c2c(O)ccc(O)c2C(=O)c2c(NCCNCCO)ccc(NCCNCCO)c21", "note": "[mitoxantrone]", "values": [{"measurement": "caspase 3 activation in neutrophils", "setting": "caspase 3", "value": "induced an increase in the activation of caspase 3 levels"}, {"measurement": "cytoplasmic DNA fragments in neutrophils", "setting": "neutrophils", "value": "significant increase in cytoplasmic DNA"}]}, {"smiles": "COC(=O)[C@@H]1c2cc3c(c(O)c2[C@@H](O[C@@H]2O[C@@H](C)[C@H](OC)[C@@](C)(OC)[C@H]2OC)C[C@]1(C)O)C(=O)c1c(O)cc2c(c1C3=O)O[C@@H]1O[C@@]2(C)[C@H](O)[C@@H](N(C)C)[C@@H]1O", "note": "[nogalamycin]", "values": [{"measurement": "caspase 3 activation in neutrophils", "setting": "caspase 3", "value": "induced an increase in the activation of caspase 3 levels"}]}]}
